A value given as a limit tells only on which side of the number the result lay.

The target of this assay is T1, human Nav1.8 (hNav1.8) ion channel (Homo sapiens, UniProt Q9Y5Y9).
T1 construct: expressed in transfected cells; host or cells: HEK293
T1 sequence (Q9Y5Y9 whole entry): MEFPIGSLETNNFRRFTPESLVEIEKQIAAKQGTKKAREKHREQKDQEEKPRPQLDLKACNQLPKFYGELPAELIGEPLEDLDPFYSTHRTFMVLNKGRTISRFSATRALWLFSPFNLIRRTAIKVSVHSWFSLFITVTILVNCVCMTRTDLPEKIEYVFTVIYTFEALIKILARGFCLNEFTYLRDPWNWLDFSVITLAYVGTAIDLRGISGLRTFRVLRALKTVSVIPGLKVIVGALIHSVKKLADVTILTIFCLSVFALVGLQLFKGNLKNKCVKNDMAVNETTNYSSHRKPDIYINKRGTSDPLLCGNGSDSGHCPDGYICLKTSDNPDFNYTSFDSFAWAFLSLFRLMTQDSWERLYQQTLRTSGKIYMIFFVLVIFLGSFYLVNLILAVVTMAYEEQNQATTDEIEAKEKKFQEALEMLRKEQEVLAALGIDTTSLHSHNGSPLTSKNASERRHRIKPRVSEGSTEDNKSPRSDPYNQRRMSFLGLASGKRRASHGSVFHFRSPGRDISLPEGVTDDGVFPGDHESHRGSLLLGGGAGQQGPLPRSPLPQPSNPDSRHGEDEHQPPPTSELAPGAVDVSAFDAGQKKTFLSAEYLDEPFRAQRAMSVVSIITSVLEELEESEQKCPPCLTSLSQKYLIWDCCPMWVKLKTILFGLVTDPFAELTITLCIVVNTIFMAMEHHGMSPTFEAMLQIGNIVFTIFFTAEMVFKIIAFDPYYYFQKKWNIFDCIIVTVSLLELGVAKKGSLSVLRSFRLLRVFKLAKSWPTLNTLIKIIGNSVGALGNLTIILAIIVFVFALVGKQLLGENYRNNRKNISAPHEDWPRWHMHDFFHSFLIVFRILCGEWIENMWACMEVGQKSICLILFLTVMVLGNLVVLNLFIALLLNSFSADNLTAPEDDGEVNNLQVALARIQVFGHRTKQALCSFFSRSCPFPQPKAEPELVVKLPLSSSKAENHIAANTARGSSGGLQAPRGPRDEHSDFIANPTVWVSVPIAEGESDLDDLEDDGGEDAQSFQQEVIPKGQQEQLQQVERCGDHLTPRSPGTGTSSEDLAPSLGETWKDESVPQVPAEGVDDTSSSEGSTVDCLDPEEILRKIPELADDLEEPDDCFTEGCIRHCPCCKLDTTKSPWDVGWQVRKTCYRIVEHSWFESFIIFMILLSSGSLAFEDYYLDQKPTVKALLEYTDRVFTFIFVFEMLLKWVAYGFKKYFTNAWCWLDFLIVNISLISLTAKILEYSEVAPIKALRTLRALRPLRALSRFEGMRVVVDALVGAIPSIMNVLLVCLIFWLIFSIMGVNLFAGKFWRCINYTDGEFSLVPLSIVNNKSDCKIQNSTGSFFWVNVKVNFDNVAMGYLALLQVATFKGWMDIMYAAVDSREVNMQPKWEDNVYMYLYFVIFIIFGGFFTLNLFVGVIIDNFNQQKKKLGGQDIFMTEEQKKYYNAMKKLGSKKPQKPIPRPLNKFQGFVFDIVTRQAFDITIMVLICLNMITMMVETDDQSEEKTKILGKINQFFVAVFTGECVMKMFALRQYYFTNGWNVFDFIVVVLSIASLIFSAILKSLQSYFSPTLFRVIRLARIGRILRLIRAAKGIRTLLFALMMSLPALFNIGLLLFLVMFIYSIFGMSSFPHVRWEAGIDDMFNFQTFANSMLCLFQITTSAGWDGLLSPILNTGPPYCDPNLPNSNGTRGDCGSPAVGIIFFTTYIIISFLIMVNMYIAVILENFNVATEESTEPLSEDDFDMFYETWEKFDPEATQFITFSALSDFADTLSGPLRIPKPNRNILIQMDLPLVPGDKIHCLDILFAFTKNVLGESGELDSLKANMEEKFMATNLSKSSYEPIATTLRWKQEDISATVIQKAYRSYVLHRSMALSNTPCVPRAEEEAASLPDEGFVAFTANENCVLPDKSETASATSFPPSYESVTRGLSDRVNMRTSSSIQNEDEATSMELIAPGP
The experiment in a line: Nav1.8 channel inhibition, estimated IC50 (one or more of: fluorescence inhibition assay, PatchXpress, IonFlux HT automated patch clamp). The assay is classed as cell-based. The conditions noted are these: HEK293 cells stably expressing hNav1.8; method used per compound not stated; read-out: Activity range (estimated IC50). The method, then: The ability of pyridine carboxamide derivatives exemplified above to inhibit the Nav1.8 channel was determined using one or more of the methods described below.
HEK Nav1.8 β1/β2 Stably Expressing Cell Line
A HEK293 cell line stably expressing the human Nav1.8 (hNav1.8) ion channel with β1/β2 subunits was constructed. The cell line is suitable for IC50 determination in fluorescence and electrophysiological based assays. It is also suitable to form mechanism of action pharmacology studies in electrophysiological assays. HEK293 Nav 1.8 cells are grown as adherent monolayers in DMEM/high glucose media, 10% fetal bovine serum, Na pyruvate (2 mM), Hepes (10 mM) with selection agents G418 (400 mg/L) and puromycin (0.5 mg/L) at 37 degrees C., 10% CO2.
Nav 1.8 Fluorescence Inhibition Assay
Compounds were made up to or supplied as a 10-mM stock solution using DMSO as the vehicle. Concentration-response curves were generated using a Matrix multichannel pipettor. Compound source plates were made by diluting 10 mM compound stocks to create 500 μM (100×) solutions in DMSO in 96-well v-bottom plates. Compounds were then serially diluted in 100% DMSO to generate a 5 point, 4-fold dilution scheme dose response curve. 2 μL of the 100× dose response curves was then added to preincubation and stimulation assay plates. 100 μL of pre-incubation buffer and 200 μL of stimulation buffer were then added to the plates resulting in a final assay test concentration range of 5 μM to 0.02 μM with a final DMSO concentration of 1%.
On the day of assay, plates were washed to remove cell culture media using 2K EBSS buffer (135 mM NaCl, 2 mM KCl, 5 mM Glucose, 2 mM CaCl2), 1 mM MgCl2, 10 mM HEPES, pH 7.4). The Na-sensitive fluorescent dye, Asante Natrium Green-2 (ANG-2) is incubated for 60 min to allow equilibration and then washed with 2K EBSS. Plates are the transferred to a fluorescence plate reader (FLIPR™, Molecular Devices) for fluorescence measurement using an excitation wavelength of 490 nm and an emission wavelength of 565 nm. Compounds are pre-incubated at for 5 min at final test concentration in the presence of ouabain (30 μM) to inhibit Na+ efflux through Na+/K+ exchanger. Following the pre-incubation phase, hNav1.8 channels are stimulated with 10 μM of the pyrethroid deltamethrin to prevent channel inactivation. The assay was run for 15 min with vehicle and 30 μM tetracaine serving as negative and positive controls, respectively. The peak change in fluorescence relative to negative and positive control wells was calculated and fit with a logistic equation to determine IC50.
PatchXpress Nav 1.8 Inhibition Assay
HEK-Nav1.8 β1/β2 cells were recorded in whole cell patch-clamp using the PatchXpress automated patch clamp platforms (Molecular Devices). Cells suspensions were obtained by trypsinization of adherent monolayers, followed by gentle rocking for minimally 30 min. Compounds were prepared from 10 mM DMSO stocks.
Nav1.8 channel variants were evaluated using Protocol 1 (FIG. 2) in which cells were initially voltage clamped at a holding potential of −100 mV to maintain Nav1.8 in a closed resting state. After current amplitude becomes stable, the mid-point voltage of steady state inactivation was determined for each cell using a series of 5 sec conditioning steps to increasingly depolarized voltages (−100 to 0 mV) The holding potential was then reset to a voltage that produces ˜50% inactivation (Vhalf−set automatically via PatchXpress scripts) so that closed and inactivated channel inhibition can be assessed. Protocol 1 was run at a frequency of 0.1 Hz until current amplitude is steady (automatically determined by PatchXpress scripts). The effect of test reagent on Nav current amplitude was monitored using custom PatchXpress stability scripts which determines the timing of compound addition and washout. Data were processed and analyzed using DataXpress 2.0 (Molecular Devices). […]
What is called IC50 is the concentration needed to halve the response being measured. With `CS(=N)(=O)c1cccc(NC(=O)c2cc(C(F)(F)F)cnc2Oc2ccc(OC(F)(F)F)cc2)c1` (single isomer, unassigned) [Example 130, N-[3-(methylsulfonimidoyl)phenyl]-2-[4-(trifluoromethoxy)phenoxy]-5-(trifluoromethyl)pyridine-3-carboxamide], the IC50 is under 0.5 µM.

With `CS(=N)(=O)c1cccc(NC(=O)c2cc(C(F)(F)F)cnc2Oc2ccc(OC(F)(F)F)cc2)c1` (single isomer, unassigned) [Example 131, N-[3-(methylsulfonimidoyl)phenyl]-2-[4-(trifluoromethoxy)phenoxy]-5-(trifluoromethyl)pyridine-3-carboxamide], the IC50 is under 0.5 µM.

For `COc1cc(F)ccc1Oc1ncc(C(F)(F)F)cc1C(=O)Nc1ccc2ncsc2c1` [Example 1, N-(1,3-benzothiazol-6-yl)-2-(4-fluoro-2-methoxy-phenoxy)-5-(trifluoromethyl)pyridine-3-carboxamide], the IC50 was over 1 µM.

In the case of `COc1cc(F)ccc1Oc1ncc(C(F)(F)F)cc1C(=O)Nc1cccc(N2CCOCC2)c1` [Example 2, 2-(4-fluoro-2-methoxy-phenoxy)-N-(3-morpholinophenyl)-5-(trifluoromethyl)pyridine-3-carboxamide], the IC50 was over 1 µM.

With `COc1cc(F)ccc1Oc1ncc(C(F)(F)F)cc1C(=O)Nc1cccc(C#N)c1` [Example 3, N-(3-cyanophenyl)-2-(4-fluoro-2-methoxy-phenoxy)-5-(trifluoromethyl)pyridine-3-carboxamide], the IC50 is under 0.5 µM.

As to `COc1cc(F)ccc1Oc1ncc(C(F)(F)F)cc1C(=O)Nc1cccnc1` [Example 4, 2-(4-fluoro-2-methoxy-phenoxy)-N-(3-pyridyl)-5-(trifluoromethyl)pyridine-3-carboxamide], the IC50 was over 1 µM.

As for `COc1cc(F)ccc1Oc1ncc(C(F)(F)F)cc1C(=O)Nc1ccc(C#N)cc1` [Example 5, N-(4-cyanophenyl)-2-(4-fluoro-2-methoxy-phenoxy)-5-(trifluoromethyl)pyridine-3-carboxamide], the IC50 was over 1 µM.

Take `COc1cc(F)ccc1Oc1ncc(C(F)(F)F)cc1C(=O)Nc1ccncc1` [Example 6, 2-(4-fluoro-2-methoxy-phenoxy)-N-(4-pyridyl)-5-(trifluoromethyl)pyridine-3-carboxamide]: the IC50 is 0.5 to 1 µM.

`COc1cc(F)ccc1Oc1ncc(C(F)(F)F)cc1C(=O)Nc1ccc(C#N)nc1` [Example 7, N-(6-cyano-3-pyridyl)-2-(4-fluoro-2-methoxy-phenoxy)-5-(trifluoromethyl)pyridine-3-carboxamide]: the IC50 is over 1 µM.

As to `COc1cc(F)ccc1Oc1ncc(C(F)(F)F)cc1C(=O)Nc1cccc([S+](C)[O-])c1` (stereo not shown) [Example 8, 2-(4-fluoro-2-methoxy-phenoxy)-N-(3-methylsulfinylphenyl)-5-(trifluoromethyl)pyridine-3-carboxamide], the concentration for half-maximal inhibition (IC50) was under 0.5 µM.

`COc1cc(F)ccc1Oc1ncc(C(F)(F)F)cc1C(=O)Nc1cccc(-c2cnco2)c1` [Example 9, 2-(4-fluoro-2-methoxy-phenoxy)-N-(3-oxazol-5-ylphenyl)-5-(trifluoromethyl)pyridine-3-carboxamide]: the IC50 was over 1 µM.

Turning to `COc1cc(F)ccc1Oc1ncc(C(F)(F)F)cc1C(=O)Nc1cccc(S(=O)(=O)N(C)C)c1` [Example 10, N-[3-(dimethylsulfamoyl)phenyl]-2-(4-fluoro-2-methoxy-phenoxy)-5-(trifluoromethyl)pyridine-3-carboxamide], the IC50 was under 0.5 µM.

Consider `COc1cc(F)ccc1Oc1ncc(C(F)(F)F)cc1C(=O)Nc1nc2ccccc2s1` [Example 11, N-(1,3-benzothiazol-2-yl)-2-(4-fluoro-2-methoxy-phenoxy)-5-(trifluoromethyl)pyridine-3-carboxamide], for which the IC50 was over 1 µM.

As to `COc1cc(F)ccc1Oc1ncc(C(F)(F)F)cc1C(=O)Nc1ccncn1` [Example 12, 2-(4-fluoro-2-methoxy-phenoxy)-N-pyrimidin-4-yl-5-(trifluoromethyl)pyridine-3-carboxamide], the IC50 was under 0.5 µM.

On to `COc1cc(F)ccc1Oc1ncc(C(F)(F)F)cc1C(=O)Nc1cccc(S(=O)(=O)C(F)(F)F)c1` [Example 13, 2-(4-fluoro-2-methoxy-phenoxy)-5-(trifluoromethyl)-N-[3-(trifluoromethylsulfonyl)phenyl]pyridine-3-carboxamide], for which the IC50 was over 1 µM.

Regarding `COc1cc(F)ccc1Oc1ncc(C(F)(F)F)cc1C(=O)Nc1cccc(S(C)(=N)=O)c1` (stereo not shown) [Example 14, 2-(4-fluoro-2-methoxy-phenoxy)-N-[3-(methylsulfonimidoyl)phenyl]-5-(trifluoromethyl)pyridine-3-carboxamide], the IC50 is under 0.5 µM.

For `COc1cc(NC(=O)c2cc(C(F)(F)F)cnc2Oc2ccc(F)cc2OC)ccn1` [Example 15, 2-(4-fluoro-2-methoxy-phenoxy)-N-(2-methoxy-4-pyridyl)-5-(trifluoromethyl)pyridine-3-carboxamide], the IC50 was over 1 µM.

Turning to `CN=S(C)(=O)c1cccc(NC(=O)c2cc(C(F)(F)F)cnc2Oc2ccc(F)cc2OC)c1` (stereo not shown) [Example 16, N-[3-(N,S-dimethylsulfonimidoyl)phenyl]-2-(4-fluoro-2-methoxy-phenoxy)-5-(trifluoromethyl)pyridine-3-carboxamide], the 50% inhibitory concentration (IC50) is under 0.5 µM.

Consider `COc1cc(F)ccc1Oc1ncc(C(F)(F)F)cc1C(=O)Nc1ccnc(C)c1` [Example 17, 2-(4-fluoro-2-methoxy-phenoxy)-N-(2-methyl-4-pyridyl)-5-(trifluoromethyl)pyridine-3-carboxamide], for which the IC50 was over 1 µM.

`COc1cc(F)ccc1Oc1ncc(C(F)(F)F)cc1C(=O)Nc1ccc(C)nc1` [Example 18, 2-(4-fluoro-2-methoxy-phenoxy)-N-(6-methyl-3-pyridyl)-5-(trifluoromethyl)pyridine-3-carboxamide]: the IC50 was over 1 µM.

Take `COc1cc(F)ccc1Oc1ncc(C(F)(F)F)cc1C(=O)Nc1ccnnc1` [Example 19, 2-(4-fluoro-2-methoxy-phenoxy)-N-pyridazin-4-yl-5-(trifluoromethyl)pyridine-3-carboxamide]: the IC50 is 0.5 to 1 µM.

In the case of `COc1cc(F)ccc1Oc1ncc(C(F)(F)F)cc1C(=O)Nc1cccc(N=S(C)(C)=O)c1` [Example 20, N-[3-[[dimethyl(oxo)-λ^6-sulfanylidene]amino]phenyl]-2-(4-fluoro-2-methoxy-phenoxy)-5-(trifluoromethyl)pyridine-3-carboxamide], the IC50 was over 1 µM.

For `CS(=O)(=O)c1cccc(NC(=O)c2cc(C(F)(F)F)cnc2Oc2ccc(Cl)cc2Cl)c1` [Example 21, 2-(2,4-dichlorophenoxy)-N-(3-methylsulfonylphenyl)-5-(trifluoromethyl)pyridine-3-carboxamide], the IC50 is under 0.5 µM.

As to `Cc1ccc(Oc2ncc(C(F)(F)F)cc2C(=O)Nc2cccc(S(C)(=O)=O)c2)c(C)c1` [Example 22, 2-(2,4-dimethylphenoxy)-N-(3-methylsulfonylphenyl)-5-(trifluoromethyl)pyridine-3-carboxamide], the concentration for half-maximal inhibition (IC50) was over 1 µM.

As to `COc1ccc(Oc2ncc(C(F)(F)F)cc2C(=O)Nc2cccc(S(C)(=O)=O)c2)c(Cl)c1` [Example 23, 2-(2-chloro-4-methoxy-phenoxy)-N-(3-methylsulfonylphenyl)-5-(trifluoromethyl)pyridine-3-carboxamide], the IC50 is under 0.5 µM.

The values above are taken from US12234221B2, “Pyridine carboxamide compounds for inhibiting NAV1.8” (Lieber Institute, Inc., priority 2018, dated 2025).
